These results are taken from PMC10961089, “Epidermal growth factor receptor inhibition potentiates chemotherapeutics‐mediated sensitization of metastatic breast cancer stem cells” (Cancer Reports, 2024).

One test concerns MDA‐MB‐231. Kind of test: MTT cytotoxicity assay in MDA-MB-231. It counts as cell-based, human. The conditions noted are these: compound alone, MTT, 48 h; read-out: IC50 (μM) in MDA‐MB‐231 (mean ± SD). Here is the method: TNBC cell lines (ER^−, PR^−, HER2^−)—MDA‐MB‐231 (ATCC HTB‐26) and MDA‐MB‐468 (ATCC HTB‐132) were procured from ATCC and cultured in Roswell Park Memorial Institute Media (RPMI‐1640) and Dulbecco's Modified Eagle's Medium (DMEM), respectively, supplemented with 10% FBS and 1% Penicillin–Streptomycin solution. Cells were maintained at 5% CO2 at 37°C in a humid atmosphere.[6], [26] The control cell line, Human Embryonic Kidney—HEK‐293 (ATCC CRL‐3216) was also obtained from ATCC and cultured in DMEM.[5], [25]
To evaluate the cytotoxicity profile of the potential EGFR inhibitors (compounds) against TNBC cell lines—MDA‐MB‐231, MDA‐MB‐468, and control cell line HEK293, cells were seeded at a cell density of 5 × 10^3 cells/well in complete medium onto 96‐well plates. Here, the non‐tumoral human embryonic kidney (HEK293) epithelial cells have been utilized as a control cell line to compare the IC50 values of the compounds between cancerous and non‐cancerous cell lines with a big therapeutic window. The use of HEK293 cells as compared to other non‐cancerous cell lines are easy to maintain in culture and the results obtained from HEK293 are highly reproducible and consistent.[27] Briefly, the cells were incubated at 37°C for 12 h to attain morphology. After 12 h, cells were serum starved by replacing the complete media with media containing 2% FBS to synchronize the cells. Post‐12 h of synchronization, cells were treated with an increasing concentration (0.1, 1, 10, 100 μM) of all the compounds (1a, 1b, 1c, 1d, 1e, 1f, 1g, 1h, 1i, 1j, 1k). Separately, TNBC cells were treated with increasing concentration (0.01, 0.1, 1 μM) of Doxorubicin (Sigma‐Aldrich, St Louis, MO, USA) in presence of the selected compounds (1c, 1e, 1g, 1h, 1j, and 1k) at 5 μM concentration or combination of selected compounds (1c, 1e, 1g, 1h, 1j, and 1k) at increasing concentration (1, 2.5, 5, 10 μM) in presence of Doxorubicin (0.01 μM) for 48 h. In addition, the CD24^+‐breast cancer cells and CD24^−/CD44^+‐breast CSC populations, being sorted by Magnetic Activated Cell Sorting (MACS) from MDA‐MB‐231 cells as described previously,[6] were also treated with increasing concentrations of Doxorubicin (0.01–1 μM), in the presence or absence of 1e (10–30 μM), or PD153035 (10 μM) (Sigma‐Aldrich, St Louis, MO, USA). MTT assay was performed to evaluate the cytotoxicity of these compounds against the TNBC cell lines, and the sorted populations as described previously.[6] All the experiments were performed thrice and the IC50 values of the compounds and Doxorubicin were calculated using GraphPad Prism software version 9 (San Diego, CA, USA). Similarly, the percent inhibition of the sorted cell populations by chemotherapeutic drug, doxorubicin in the absence/presence of potent compound 1e or standard EGFR inhibitor, PD153035 was evaluated utilizing GraphPad Prism Version 9 (San Diego, CA, USA).

Test [1] concerns CD24^−/CD44^+‐breast CSC population sorted from MDA‐MB‐231. Kind of test: MTT assay in sorted breast CSC population. It counts as cell-based, human. To be noted: doxorubicin 0.01 μM + 1e 5 μM vs doxorubicin 0.01 μM alone. Here is the method:
To evaluate the cytotoxicity profile of the potential EGFR inhibitors (compounds) against TNBC cell lines—MDA‐MB‐231, MDA‐MB‐468, and control cell line HEK293, cells were seeded at a cell density of 5 × 10^3 cells/well in complete medium onto 96‐well plates. Here, the non‐tumoral human embryonic kidney (HEK293) epithelial cells have been utilized as a control cell line to compare the IC50 values of the compounds between cancerous and non‐cancerous cell lines with a big therapeutic window. The use of HEK293 cells as compared to other non‐cancerous cell lines are easy to maintain in culture and the results obtained from HEK293 are highly reproducible and consistent.[27] Briefly, the cells were incubated at 37°C for 12 h to attain morphology. After 12 h, cells were serum starved by replacing the complete media with media containing 2% FBS to synchronize the cells. […] All the experiments were performed thrice and the IC50 values of the compounds and Doxorubicin were calculated using GraphPad Prism software version 9 (San Diego, CA, USA). Similarly, the percent inhibition of the sorted cell populations by chemotherapeutic drug, doxorubicin in the absence/presence of potent compound 1e or standard EGFR inhibitor, PD153035 was evaluated utilizing GraphPad Prism Version 9 (San Diego, CA, USA).
Background: Formazan colour is commonly taken as a measure of viable cells.

Molecules are shown by their SMILES.

As a reminder, the IC50 is the point on the concentration scale where inhibition reaches its midpoint. On to `c1cncc(C(c2c[nH]c3ccccc23)c2c[nH]c3ccccc23)c1` [1e], for which the IC50 with MDA‐MB‐231 is 18.6 ± 1.84 µM. Besides, the “increase of percent inhibition of cell proliferation versus doxorubicin alone” value in test [1] is reported as 6.1 folds.
